target: T1, human LPA1 receptor (Homo sapiens, UniProt Q92633); assay: calcium flux assay (LPA Receptor Assays); format: cell-based; details: not given
T1 construct: The 1.1 kb cDNA encoding the full-length coding region of human LPA1 was subcloned into the pRK5; expressed in transfected cells; host or cells: HEK293 or CHO cells
Method: A cDNA encoding the human LPA1 receptor was cloned by PCR from cDNA clone obtained from commercial sources. The nucleotide sequence was determined by sequencing and confirmed to be identical to the published human LPA1 sequence (An, 1997). The 1.1 kb cDNA encoding the full-length coding region of human LPA1 was subcloned into the pRK5 […] expression vector. Transfection of the cDNA into HEK293 or CHO cells is performed by using LipofectAmine 2000 (Invitrogen, USA). The full-length cDNA fragments for human LPA2 and LPA3 were obtained by PCR similarly and subcloned into pCDNA3.1 expression vector.
Transfected cells were cultured and subjected to LPA-induced SRE-luciferase reporter gene assay by using generally described methods (An, 1997). Intact HEK293 or CHO cells expressing the recombinant human LPA1 receptor were subjected to a [3H]-LPA ligand binding assay as described (An, 1998).
All compounds presented in the patent have IC50<20 μM in the calcium flux assay.

T1 sequence (Q92633 whole entry): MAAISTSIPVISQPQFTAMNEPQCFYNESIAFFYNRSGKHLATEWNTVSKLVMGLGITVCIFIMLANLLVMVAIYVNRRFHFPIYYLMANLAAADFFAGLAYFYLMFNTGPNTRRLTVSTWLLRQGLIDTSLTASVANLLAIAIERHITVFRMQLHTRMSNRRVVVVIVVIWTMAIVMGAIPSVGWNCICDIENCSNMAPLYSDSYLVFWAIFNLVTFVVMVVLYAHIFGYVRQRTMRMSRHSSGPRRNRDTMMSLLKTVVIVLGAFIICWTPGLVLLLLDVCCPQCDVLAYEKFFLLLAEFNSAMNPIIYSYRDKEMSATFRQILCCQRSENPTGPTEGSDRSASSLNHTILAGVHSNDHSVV

Compound	IC50
Cc1noc(-c2ccc(NS(C)(=O)=O)cc2)c1NC(=O)OC(C)c1ccccc1Cl (stereo not drawn) [Compound 1, 1-(2-chlorophenyl)ethyl(3-methyl-5-(4-(methylsulfonamido)phenyl)isoxazol-4-yl)carbamate]	90 nM
Cc1noc(-c2ccc3[nH]ncc3c2)c1NC(=O)OC(C)c1ccccc1Cl (stereo not drawn) [Compound 3, 1-(2-chlorophenyl)ethyl(5-(1H-indazol-5-yl)-3-methylisoxazol-4-yl)carbamate]	550 nM
Cc1noc(-c2ccc(NC(=O)C3CC3)cc2)c1NC(=O)OC(C)c1ccccc1Cl (stereo not drawn) [Compound 7, 1-(2-chlorophenyl)ethyl(5-(4-(cyclopropanecarboxamido)phenyl)-3-methylisoxazol-4-yl)carbamate]	1150 nM
Cc1noc(-c2ccc(NC(=O)CCC(=O)O)cc2)c1NC(=O)OC(C)c1ccccc1Cl (stereo not drawn) [Compound 12, 4-((4-(4-(((1-(2-chlorophenyl)ethoxy)carbonyl)amino)-3-methylisoxazol-5-yl)phenyl)amino)-4-oxobutanoic acid]	70 nM
Cc1noc(-c2ccc(NC(=O)c3ccccc3)cc2)c1NC(=O)OC(C)c1ccccc1Cl (stereo not drawn) [Compound 16, 1-(2-chlorophenyl)ethyl(5-(4-benzamidophenyl)-3-methylisoxazol-4-yl)carbamate]	2200 nM
Cc1noc(-c2ccc(NS(C)(=O)=O)cc2)c1NC(=O)O[C@H](C)c1ccccc1Cl [Compound 19, (R)-1-(2-chlorophenyl)ethyl(3-methyl-5-(4-(methylsulfonamido)phenyl)isoxazol-4-yl)carbamate]	55 nM
Cc1noc(-c2ccc(NS(=O)(=O)CCC(=O)O)cc2)c1NC(=O)OC(C)c1ccccc1Cl (stereo not drawn) [Compound 28, 3-(N-(4-(4-(((1-(2-chlorophenyl)ethoxy)carbonyl)amino)-3-methylisoxazol-5-yl)phenyl)sulfamoyl)propanoic acid]	110 nM
Cc1noc(-c2ccc(NS(C)(=O)=O)cc2F)c1NC(=O)OC(C)c1ccccc1Cl (stereo not drawn) [Compound 32, 1-(2-chlorophenyl)ethyl(5-(2-fluoro-4-(methylsulfonamido)phenyl)-3-methylisoxazol-4-yl)carbamate]	70 nM
Cc1noc(-c2ccc(NS(C)(=O)=O)cc2)c1NC(=O)OC(C)c1ccc(F)cc1Cl (stereo not drawn) [Compound 42, 1-(2-chloro-4-fluorophenyl)ethyl(3-methyl-5-(4-(methylsulfonamido)phenyl)isoxazol-4-yl)carbamate]	60 nM
Cc1noc(-c2ccc(NC(=O)CCC(=O)O)cc2F)c1NC(=O)O[C@H](C)c1ccccc1Cl [Compound 50, (R)-4-((4-(4-(((1-(2-chlorophenyl)ethoxy)carbonyl)amino)-3-methylisoxazol-5-yl)-3-fluorophenyl)amino)-4-oxobutanoic acid]	70 nM

tested on: highly peritoneal metastatic pancreatic cancer cell line; assay: not given; details: highly peritoneal metastatic pancreatic cancer cell line (Yamada, 2004); cited from earlier work

Compound	LPA-induced and ascites-induced invasion activity
Cc1noc(-c2ccc(CSCCC(=O)O)cc2)c1NC(=O)OC(C)c1ccccc1Cl (stereo not drawn) [Ki16425]	blocked

tested on: breast cancer cells; assay: not given; details: animal models (Boucharaba, 2006); cited from earlier work

Compound	metastasis of breast cancer cells to bone
Cc1noc(-c2ccc(CSCCC(=O)O)cc2)c1NC(=O)OC(C)c1ccccc1Cl (stereo not drawn) [Ki16425]	inhibited
